In series [1] the test system is CWR22R. Description: Cytotoxicity against human 22Rv1 cells assessed as reduction in cell viability measured after 72 hrs by MTT assay. The series is classed as functional.
Series [2] concerns PC-3. Description: Cytotoxicity against human PC-3 cells assessed as reduction in cell viability measured after 72 hrs by MTT assay. Type of series: functional.
Series [3] in a line: Selectivity ratio of CC50 for cytotoxicity against human PC-3 cells to CC50 for cytotoxicity against human 22Rv1 cells.
Series [4] in a line: Chronic toxicity in rat assessed as increase in relative kidney weight administered intravenously as pluronic F127 formulation at 4 intervals for 21 days and observed 3 weeks post last injection. Particulars: in vivo, iv, 2544 h, time 106 day. Type of series: tissue-based.
Series [5] relates to PC-3. Description: Induction of ROS generation in human PC-3 cells at 800 mV holding potential measured after 1 hr by patch clamp amplifier based optical inverted microscopic analysis. The series is classed as functional, cell-based. (In general: Patch clamp records ionic current or voltage across a cell membrane.)
The test system of series [6] is CWR22R. Description: Effect on cell stiffness in human 22Rv1 cells assessed as increase in young's modulus at 1 nM measured after 1 hr by topography based scanning ion-conductance microscopic analysis. Type of series: functional.
Series [7] has as its system PC-3. Description: Effect on cell stiffness in human PC-3 cells assessed as increase in young's modulus at 1 nM measured after 1 hr by topography based scanning ion-conductance microscopic analysis. Type of series: functional.
A short description of series [8]: Chronic toxicity in rat assessed as increase in creatinine concentration at […], iv administered as pluronic F127 formulation at 4 intervals for 21 days and observed 3 weeks post last injection relative to control. Particulars: in vivo, 2544 h, time 106 day. Type of series: organism-based.
Series [9] can be described thus: Aqueous solubility of compound. The series is classed as physicochemical.
In series [10] the test system is CWR22R. The series is described as follows: Antitumor activity against human 22Rv1 cells xenografted in Balb/c nude mouse assessed as tumor growth inhibition at 10 mg/kg, ip administered daily for 5 days and measured at day 34 relative to control. Type of series: functional. On the set-up: scale not given: the % may be the effect or the level left. To be noted: time 34 day.

Series [11] can be described thus: Toxicity in Balb/c nude mouse xenografted with human 22Rv1 cells assessed as animal death at 10 mg/kg, ip measured upto 30 days. The series is classed as organism-based, CWR22R. Particulars: in vivo, 720 h, time < 30 day. For orientation: Xenograft models place foreign cells or tissue in a host animal.
Series [12] concerns DU-145. The series is described as follows: Antitumor activity against human DU-145 cells xenografted in BALB/c nude mouse assessed as tumor growth inhibition at 24.8 mg/kg, ip measured upto 30 days. Type of series: functional. To be noted: DU-145, 720 h, time <= 30 day, read-out: TGI.
The test system of series [13] is DU-145. Description: Antitumor activity against human DU-145 cells xenografted in BALB/c nude mouse assessed as reduction in tumor growth index at 24.8 mg/kg, ip measured upto 30 days (reference value: 799 +/- 121.8 %). Type of series: functional. Also on record: scale not given: the % may be the effect or the level left. Particulars: time <= 30 day.
The test system of series [14] is DU-145. Description: Antitumor activity against human DU-145 cells xenografted in BALB/c nude mouse assessed as tumor growth inhibition at 12.4 mg/kg, ip measured upto 30 days. Type of series: functional. To be noted: DU-145, 720 h, time <= 30 day, read-out: TGI.
The test system of series [15] is DU-145. The series is described as follows: Antitumor activity against human DU-145 cells xenografted in BALB/c nude mouse assessed as reduction in tumor growth index at 12.4 mg/kg, ip measured upto 30 days (reference value: 799 +/- 121.8 %). Also on record: scale not given: the % may be the effect or the level left. To be noted: time <= 30 day. Type of series: functional.

A short description of series [16]: Toxicity in BALB/c nude mouse xenografted with human DU-145 cells assessed as animal death at 12.4 to 24.8 mg/kg, ip measured on day 8. The series is classed as organism-based. Particulars: in vivo, dose 12.4-24.8 mg/kg, time 8 day, read-out: Activity.
The nature of series [17]: Acute toxicity in iv dosed ICR mouse assessed as lethal dose. The series is classed as organism-based. Particulars: in vivo.
Series [18] is described as follows: Chronic toxicity in rat assessed as hair loss administered intravenously as pluronic F127 formulation at 4 intervals for 21 days and observed 3 weeks post last injection. To be noted: in vivo, iv, 2544 h, time 106 day.
A short description of series [19]: Chronic toxicity in rat assessed as reduction in grooming frequency at 15.16 mg/kg, iv administered as pluronic F127 formulation at 4 intervals for 21 days and observed 3 weeks post last injection. Type of series: organism-based. To be noted: in vivo, 2544 h, time 106 day.
The nature of series [20]: Chronic toxicity in rat assessed as reduction in getting up frequency at 15.16 mg/kg, iv administered as pluronic F127 formulation at 4 intervals for 21 days and observed 3 weeks post last injection. The series is classed as organism-based. Particulars: in vivo, 2544 h, time 106 day.
Series [21] in a line: Chronic toxicity in rat assessed as neurological disorder administered intravenously as pluronic F127 formulation at 4 intervals for 21 days and observed 3 weeks post last injection. To be noted: in vivo, iv, 2544 h, time 106 day.
Series [22] is described as follows: Chronic toxicity in rat assessed as change in alkaline phosphatase level at […], iv administered as pluronic F127 formulation at 4 intervals for 21 days and observed 3 weeks post last injection relative to control. Type of series: organism-based. To be noted: in vivo, 2544 h, time 106 day.
A short description of series [23]: Chronic toxicity in rat assessed as change in erythrocytes in blood administered intravenously as pluronic F127 formulation at 4 intervals for 21 days and observed 3 weeks post last injection relative to control. Type of series: cell-based. To be noted: iv, 2544 h, time 106 day.
Series [24] can be described thus: Chronic toxicity in rat assessed as change in volume of excreted urine administered intravenously as pluronic F127 formulation at 4 intervals for 21 days and observed 3 weeks post last injection relative to control. To be noted: in vivo, iv, 2544 h, time 106 day.
A short description of series [25]: Chronic toxicity in rat assessed as increase in relative mass of liver administered intravenously as pluronic F127 formulation at 4 intervals for 21 days and observed 3 weeks post last injection relative to control. Type of series: tissue-based. Particulars: in vivo, iv, 2544 h, time 106 day.
Series [26] in a line: Chronic toxicity in rat assessed as change in relative heart mass administered intravenously as pluronic F127 formulation at 4 intervals for 21 days and observed 3 weeks post last injection. Type of series: tissue-based. Particulars: in vivo, iv, 2544 h, time 106 day.
A short description of series [27]: Chronic toxicity in rat assessed as increase in relative lung mass administered intravenously as pluronic F127 formulation for 4 intervals of 21 days and observed 3 weeks post last injection relative to control. Particulars: in vivo, iv, 2544 h, time 106 day.
The nature of series [28]: Chronic toxicity in rat assessed as increase in relative spleen mass administered intravenously as pluronic F127 formulation at 4 intervals for 21 days and observed 3 weeks post last injection relative to control. Type of series: tissue-based. To be noted: in vivo, iv, 2544 h, time 106 day.
Series [29] in a line: Chronic toxicity in rat assessed as increase in relative brain mass administered intravenously as pluronic F127 formulation at 4 intervals for 21 days and observed 3 weeks post last injection relative to control. The series is classed as tissue-based. To be noted: in vivo, iv, 2544 h, time 106 day.
A short description of series [30]: Chronic toxicity in rat assessed as increase in relative mass of stomach administered intravenously as pluronic F127 formulation at 4 intervals for 21 days and observed 3 weeks post last injection relative to control. Particulars: in vivo, iv, 2544 h, time 106 day. Type of series: tissue-based.
Series [31] is described as follows: Chronic toxicity in rat assessed as increase in relative mass of pancreas administered intravenously as pluronic F127 formulation at 4 intervals for 21 days and observed 3 weeks post last injection relative to control. Type of series: tissue-based. To be noted: in vivo, iv, 2544 h, time 106 day.
A short description of series [32]: Chronic toxicity in rat assessed as decrease in relative mass of testes administered intravenously as pluronic F127 formulation at 4 intervals for 21 days and observed 3 weeks post last injection relative to control. To be noted: in vivo, iv, 2544 h, time 106 day.
The nature of series [33]: Chronic toxicity in rat assessed as increase in relative mass of adrenal gland administered intravenously as pluronic F127 formulation at 4 intervals for 21 days and observed 3 weeks post last injection relative to control. Type of series: tissue-based. To be noted: in vivo, iv, 2544 h, time 106 day.
The nature of series [34]: Chronic toxicity in Soviet Chinchilla rabbit assessed as animal death administered intravenously as pluronic F127 formulation at 4 intervals for 21 days and observed one week post first injection. Also on record: species or system Oryctolagus cuniculus. Particulars: in vivo, iv, 168 h, time 7 day.
Series [35] has as its target Glutamate carboxypeptidase 2 (Homo sapiens, UniProt Q04609). The series is described as follows: Inhibition of GCPII (unknown origin).

≈ marks a conversion by molar mass, not a printed value. Where “and” joins values, the source holds several entries; their conditions need not be identical. Identical values can stand only once. Calls of active or inactive are those of the source. No cut-off for these calls is given here.

Sequence of Glutamate carboxypeptidase 2 (Q04609 whole entry): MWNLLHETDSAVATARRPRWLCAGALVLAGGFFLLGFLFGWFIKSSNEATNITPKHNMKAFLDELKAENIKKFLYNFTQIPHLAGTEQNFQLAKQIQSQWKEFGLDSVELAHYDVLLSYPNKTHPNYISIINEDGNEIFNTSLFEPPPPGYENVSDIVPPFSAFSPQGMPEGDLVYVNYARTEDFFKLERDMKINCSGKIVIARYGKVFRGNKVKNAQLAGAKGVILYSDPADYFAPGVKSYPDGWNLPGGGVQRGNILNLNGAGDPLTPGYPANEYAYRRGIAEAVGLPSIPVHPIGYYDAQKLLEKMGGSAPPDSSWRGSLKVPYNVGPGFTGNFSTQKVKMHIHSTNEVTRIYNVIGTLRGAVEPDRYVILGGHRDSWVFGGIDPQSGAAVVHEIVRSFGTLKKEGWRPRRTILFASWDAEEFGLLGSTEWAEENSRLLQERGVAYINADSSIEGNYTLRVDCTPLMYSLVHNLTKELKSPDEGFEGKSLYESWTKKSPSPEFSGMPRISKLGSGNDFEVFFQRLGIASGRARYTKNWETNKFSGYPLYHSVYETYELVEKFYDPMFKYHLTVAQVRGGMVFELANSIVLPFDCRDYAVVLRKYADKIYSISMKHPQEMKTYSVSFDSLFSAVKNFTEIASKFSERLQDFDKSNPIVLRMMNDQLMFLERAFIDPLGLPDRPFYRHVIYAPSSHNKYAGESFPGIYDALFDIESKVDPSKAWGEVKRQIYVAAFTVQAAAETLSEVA

For the compound `CC(=O)O[C@@]12CO[C@@H]1C[C@H](O)[C@@]1(C)C(=O)[C@H](O)C3=C(C)[C@@H](OC(=O)[C@H](OC(=O)CCCc4cn(CCCNC(=O)[C@H](Cc5ccccc5)NC(=O)[C@H](Cc5ccccc5)NC(=O)CCC(=O)NCCCCCC(=O)N(CCCC[C@H](NC(=O)N[C@@H](CCC(=O)O)C(=O)O)C(=O)O)Cc5ccccc5)nn4)[C@@H](NC(=O)OC(C)(C)C)c4ccccc4)C[C@@](O)([C@@H](OC(=O)c4ccccc4)[C@H]21)C3(C)C` (single isomer, unassigned), the figures for the CC50 in the series with CWR22R [1] and with PC-3 [2] were 13 nM and 20 nM, respectively. The Selectivity ratio in series [3] came out at 1.5.
For the compound `CC(=O)O[C@@]12CO[C@@H]1C[C@H](O)[C@@]1(C)C(=O)[C@H](O)C3=C(C)[C@@H](OC(=O)[C@H](O)[C@@H](NC(=O)OC(C)(C)C)c4ccccc4)C[C@@](O)([C@@H](OC(=O)c4ccccc4)[C@H]21)C3(C)C` [DOCETAXEL ANHYDROUS], the Activity result is on record as “Toxic” in series [4]; “Toxic” in series [8]; 88% with CWR22R [10]; “Toxic” in [11]; 84.8% with DU-145 [13]; 261.3% with DU-145 [15]. Further, the Activity entry in series [18] was “Toxic”; in [19], “Toxic”; in series [20], “Toxic”; in series [21], “Toxic”; in series [22] it was “Toxic”; in series [23], “Non-Toxic”. Moreover, the Activity entry was “Toxic” in series [24]; “Toxic” in series [25]; “Non-Toxic” in [26]; “Toxic” in series [27]; “Non-Toxic” in [28]; “Toxic” in [29]. In addition, the Activity entry is on record as “Toxic” in series [30]; “Toxic” in [31]; “Non-Toxic” in [32]; “Toxic” in series [33]; “Toxic” in series [34]. The CC50 in the series with CWR22R [1] and in the series on PC-3 [2] was 1 nM throughout. The Selectivity ratio in [3] was 1. The result in the series with PC-3 [5], in the series with CWR22R [6] and in the series with PC-3 [7] was Active. In addition, the solubility (usually the concentration that dissolves in the medium under given conditions) in series [9] amounted to 3 µg/mL (≈ 3.71 µM). For the same compound, the inhibition in vivo at 24.8 mg/kg in the series on DU-145 [12] amounted to 73.5%. Besides, the inhibition in vivo at 12.4 mg/kg in the series with DU-145 [14] was 47.1%. For the same compound, in [16], the mortality at 192 h turned out to be 100%. For the same compound, the LD50 (in general, the dose expected to kill half of the subjects tested) in [17] was 138 mg/kg and 171 µmol/kg.
As for `CC(=O)O[C@@]12CO[C@@H]1C[C@H](O)[C@@]1(C)C(=O)[C@H](O)C3=C(C)[C@@H](OC(=O)[C@H](OC(=O)CCCc4cn(CCCNC(=O)[C@@H](Cc5ccccc5)NC(=O)[C@@H](Cc5ccccc5)NC(=O)CCC(=O)NCCCCCC(=O)N(CCCC[C@H](NC(=O)N[C@@H](CCC(=O)O)C(=O)O)C(=O)O)Cc5ccc(Cl)c(F)c5)nn4)[C@@H](NC(=O)OC(C)(C)C)c4ccccc4)C[C@@](O)([C@@H](OC(=O)c4ccccc4)[C@H]21)C3(C)C`, the CC50 (as a rule, the concentration that lowers cell viability or growth by half) in the series on CWR22R [1] is 29 nM; in the series with PC-3 [2], 52 nM. The Selectivity ratio in series [3] is reported as 1.8.
Take `[N-]=[N+]=NCCCNC(=O)[C@H](Cc1ccc(O)cc1)NC(=O)[C@H](Cc1ccccc1)NC(=O)CCC(=O)NCCCCCC(=O)N(CCCC[C@H](NC(=O)N[C@@H](CCC(=O)O)C(=O)O)C(=O)O)Cc1cccc(Cl)c1`: the midpoint of inhibition in series [35], the IC50, lay at 9 nM.
